Patent publication US12357680B2, “Inhibition of histone methyl transferases to treat cancer” (Albert-Ludwigs-Universitat Freiburg, priority 2018, dated 2025)

Assays:
C21orf127 = C21orf127 (Homo sapiens (Human), UniProt Q9Y5N5); test: Isothermal titration calorimetry (ITC) SAM binding; conditions: monomeric C21orf127
Protocol: (§1) ITC experiments were performed at 20° C. with a MicroCal VP-ITC microcalorimeter (Malvern). […] ITC data were analysed and fitted with one-site binding model by using Origin 7.0.

C21orf127/TRMT112 = C21orf127/TRMT112 (Homo sapiens (Human), UniProt Q9Y5N5); test: Isothermal titration calorimetry (ITC) SAM binding; conditions: 20° C.
Sequence of C21orf127/TRMT112 (Q9Y5N5 whole entry): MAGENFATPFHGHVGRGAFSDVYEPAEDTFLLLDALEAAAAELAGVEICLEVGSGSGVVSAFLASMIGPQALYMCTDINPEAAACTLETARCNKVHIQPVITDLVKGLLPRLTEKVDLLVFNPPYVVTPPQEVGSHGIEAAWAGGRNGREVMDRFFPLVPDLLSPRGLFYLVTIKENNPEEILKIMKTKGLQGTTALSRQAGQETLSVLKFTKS
Sequence of C21orf127/TRMT112 (Q9UI30 whole entry partner): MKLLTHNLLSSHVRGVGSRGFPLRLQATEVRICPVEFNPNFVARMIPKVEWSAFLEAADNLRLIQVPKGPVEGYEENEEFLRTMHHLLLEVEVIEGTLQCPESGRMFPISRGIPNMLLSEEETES
Protocol: as §1

TRMT112 = TRMT112 (Homo sapiens (Human), UniProt Q9UI30); test: Isothermal titration calorimetry (ITC) SAM binding; conditions: monomeric TRMT112
Sequence of TRMT112 (Q9UI30 whole entry): as the sequence (Q9UI30 whole entry partner) above
Protocol: as §1

C21orf127(D103)/TRMT112 = C21orf127(D103)/TRMT112 (Homo sapiens (Human), UniProt Q9Y5N5, D103A); test: Isothermal titration calorimetry (ITC) SAM binding; conditions: mutant heterodimer
Sequence of C21orf127(D103)/TRMT112 (Q9Y5N5 whole entry D103A): as the sequence (Q9Y5N5 whole entry) above, with D103A counted along it
Sequence of C21orf127(D103)/TRMT112 (Q9UI30 whole entry partner): as the sequence (Q9UI30 whole entry partner) above
Protocol: as §1

[1] = target: recombinant KMT9 (C21orf127/TRMT112) (Homo sapiens (Human), UniProt Q9Y5N5); test: Histone H4 methylation assay with SAM[3H], autoradiography; type: biochemical; conditions: histone H4, SAM[3H]
Sequence of recombinant KMT9 (C21orf127/TRMT112) (Q9Y5N5 whole entry): as the sequence (Q9Y5N5 whole entry) above
Sequence of recombinant KMT9 (C21orf127/TRMT112) (Q9UI30 whole entry partner): as the sequence (Q9UI30 whole entry partner) above
Protocol: FIG. 1 C21orf127/TRMT112 methylates histone H4 at K12. (A to C) Methylation assays. (A) Histone H4, H3, H2A, H2B, and H1 were incubated with SAM[^3H] in the absence or presence of recombinant C21orf127/TRMT112. (B) Wild-type or mutant histone H4 were incubated with SAM[3H] in the presence of recombinant C21orf127/TRMT112. Proteins were stained by Ponceau red. […] (C) Histone H4 was incubated with C21orf127/TRMT112, SAM[^3H], and the SAM competitive inhibitor sinefungin as indicated. Proteins were stained by Ponceau red.
FIG. 9. […] Histone H4 (2 μg) was incubated with SAM[3H] in the presence of recombinant KMT9 (KMT9α and KMT90) and the three afore-mentioned inhibitors as indicated.
It was tested in this example whether the known DOT1L-inhibitors EPZ5676, SGC0946 and EPZ004777 (which are commercially available) are capable of inhibiting KMT9. To this aim, histone H4 was incubated with SAM[^3H] in the presence of recombinant KMT9 (provided in the form of the heterodimer of KMT9α and KMT90) and the three afore-mentioned inhibitors.
Four to eight μg of purified recombinant His-C21orf127, His-C21orf127/TRMT112, His-C21orf127(D103A)/TRMT112, His-C21orf127(N122A)/TRMT112, His-C21orf127(Y125A)/TRMT112, His-TRMT112, WBSCR22/TRMT112, His-TRMT11, His-TRMT12, His-KIAA1456, His-TRMT5, His-METTL27, His-METTL21A and His-METTL21B were incubated either with 4 μg core histones or 2 μg of histones H4, H3, H2A, H2B, H1 (BPS Bioscience), histone H4K12A, or His-ETF1 as indicated in methylation buffer (10 mM Tris-HCl pH 7.6, 50 mM KCl, 10 mM Mg(OAc)2, 1 mM DTT) supplemented as indicated with 1.5 μM SAM or 1.5 μl of radioactively labelled [^3H]SAM for 60 min (METTL21A: 300 minutes, METTL21B: 18 h) at 30° C. For mass spectrometry analysis, 2 μg of histone H4 were incubated overnight with 2 μg of His-C21orf127/TRMT112 in presence of SAM, heavy SAM, or SAM/heavy SAM mixture. The reaction mixture was analysed by autoradiography, Western blotting, or mass spectrometry.

PRDM9 = PRDM9 (Homo sapiens (Human), UniProt Q9NQV7); test: Methyltransferase panel, 10-dose IC50 mode; type: biochemical; conditions: Substrate: Histone H3; 1 μM SAM; read-out: Control IC50*
Sequence of PRDM9 (Q9NQV7 whole entry): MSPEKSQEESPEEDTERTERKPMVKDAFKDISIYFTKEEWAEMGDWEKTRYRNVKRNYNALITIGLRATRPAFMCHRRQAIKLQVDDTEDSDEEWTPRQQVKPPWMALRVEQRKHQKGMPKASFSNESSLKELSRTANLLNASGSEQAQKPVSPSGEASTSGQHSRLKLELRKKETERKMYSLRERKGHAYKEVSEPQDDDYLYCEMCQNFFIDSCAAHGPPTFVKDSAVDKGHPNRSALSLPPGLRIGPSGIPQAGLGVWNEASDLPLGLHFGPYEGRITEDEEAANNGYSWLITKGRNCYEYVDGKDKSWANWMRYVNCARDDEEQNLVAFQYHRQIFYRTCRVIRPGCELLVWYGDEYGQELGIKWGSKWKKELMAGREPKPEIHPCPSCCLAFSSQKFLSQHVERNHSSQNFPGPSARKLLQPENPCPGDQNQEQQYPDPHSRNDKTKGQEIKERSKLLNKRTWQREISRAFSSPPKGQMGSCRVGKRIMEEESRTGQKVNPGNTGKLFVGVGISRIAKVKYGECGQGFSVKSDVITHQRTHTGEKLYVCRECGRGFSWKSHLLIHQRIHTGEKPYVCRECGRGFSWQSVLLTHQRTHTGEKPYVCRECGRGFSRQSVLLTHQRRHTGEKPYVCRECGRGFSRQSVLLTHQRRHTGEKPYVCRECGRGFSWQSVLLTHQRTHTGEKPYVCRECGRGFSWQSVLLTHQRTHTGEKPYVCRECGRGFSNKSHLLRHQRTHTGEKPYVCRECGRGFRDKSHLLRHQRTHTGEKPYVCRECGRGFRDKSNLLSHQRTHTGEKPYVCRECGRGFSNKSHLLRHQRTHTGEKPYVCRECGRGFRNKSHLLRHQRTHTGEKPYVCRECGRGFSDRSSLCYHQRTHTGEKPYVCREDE
Protocol: (§2) Compound 72b was further tested against a plurality of methyltransferases as described in the following. […] Reactions were carried out at 1 μM SAM. Curve fits were performed where the enzyme activities at the highest concentration of compounds were less than 65%. […] Compound 72b is referred to as KMI9542321 in the table below.

ASH1L = ASH1L (Homo sapiens (Human), UniProt Q9NR48); test: Methyltransferase panel, 10-dose IC50 mode; type: biochemical; conditions: Substrate: Nucleosomes; 1 μM SAM; read-out: Control IC50*
Protocol: as §2

NSD3 = NSD3 (Homo sapiens (Human), UniProt Q9BZ95); test: Methyltransferase panel, 10-dose IC50 mode; type: biochemical; conditions: Substrate: Nucleosomes; 1 μM SAM; read-out: Control IC50*
Sequence of NSD3 (Q9BZ95 whole entry): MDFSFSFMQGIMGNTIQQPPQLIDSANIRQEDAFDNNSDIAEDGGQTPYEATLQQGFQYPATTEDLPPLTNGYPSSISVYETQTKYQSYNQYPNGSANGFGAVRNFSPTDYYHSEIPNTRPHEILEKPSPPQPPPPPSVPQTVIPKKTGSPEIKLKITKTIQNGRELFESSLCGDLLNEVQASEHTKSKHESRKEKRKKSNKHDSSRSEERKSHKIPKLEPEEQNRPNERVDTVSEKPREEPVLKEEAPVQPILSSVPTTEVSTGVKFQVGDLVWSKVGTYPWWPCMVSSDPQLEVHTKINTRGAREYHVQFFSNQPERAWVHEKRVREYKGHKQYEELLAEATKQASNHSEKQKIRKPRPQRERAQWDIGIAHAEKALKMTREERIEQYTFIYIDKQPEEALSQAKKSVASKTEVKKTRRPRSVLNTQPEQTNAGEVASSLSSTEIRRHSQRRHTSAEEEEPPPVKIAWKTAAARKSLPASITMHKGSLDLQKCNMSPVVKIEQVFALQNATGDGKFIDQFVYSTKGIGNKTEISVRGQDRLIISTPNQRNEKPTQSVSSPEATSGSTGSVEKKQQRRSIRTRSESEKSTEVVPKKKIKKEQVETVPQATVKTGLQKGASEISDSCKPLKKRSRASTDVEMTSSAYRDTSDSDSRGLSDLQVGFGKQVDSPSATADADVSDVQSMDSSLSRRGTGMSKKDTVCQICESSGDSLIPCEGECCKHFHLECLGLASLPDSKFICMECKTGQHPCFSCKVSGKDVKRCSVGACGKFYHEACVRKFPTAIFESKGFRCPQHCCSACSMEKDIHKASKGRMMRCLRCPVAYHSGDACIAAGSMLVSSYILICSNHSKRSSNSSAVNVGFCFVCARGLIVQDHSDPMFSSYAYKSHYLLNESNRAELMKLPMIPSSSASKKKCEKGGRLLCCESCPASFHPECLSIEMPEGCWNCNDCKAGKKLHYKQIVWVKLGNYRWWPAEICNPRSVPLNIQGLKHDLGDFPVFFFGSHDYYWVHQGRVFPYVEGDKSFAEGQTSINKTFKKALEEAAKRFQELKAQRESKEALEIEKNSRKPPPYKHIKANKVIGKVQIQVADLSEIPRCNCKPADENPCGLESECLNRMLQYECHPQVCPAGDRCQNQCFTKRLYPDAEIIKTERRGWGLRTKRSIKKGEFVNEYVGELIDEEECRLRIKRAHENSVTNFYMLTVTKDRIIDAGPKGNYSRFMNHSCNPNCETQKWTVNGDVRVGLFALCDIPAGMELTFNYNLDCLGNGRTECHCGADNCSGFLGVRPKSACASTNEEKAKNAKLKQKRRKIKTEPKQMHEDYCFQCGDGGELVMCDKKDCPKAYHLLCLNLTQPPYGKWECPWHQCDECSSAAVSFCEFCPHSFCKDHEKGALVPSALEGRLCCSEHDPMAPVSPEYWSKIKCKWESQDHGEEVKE
Protocol: as §2

[2] = tested on: LNCaP prostate tumour cells; test: Cell proliferation, xCelligence RTCA; type: cell-based, human
Protocol: (§3) Compound 75b was tested in a proliferation assay in cell culture as described in the following. Thus, compound 75b (alternatively referred to as “KMI95423411”) was added to a final concentration of 30 μM (in the controls, DMSO as added) to cells of the following cell lines: LNCaP, SW-480, A549, MDA-MB-468 and HepG2, and the cells were cultured in the presence of inhibitor or DMSO. At the time points indicated in FIG. 15, the cells were seeded in E-plates and the cell proliferation was determined using the xCelligence RTCA system (Roche) as described below.
(§4) Cell proliferation, migration and invastion were determined using the X-Celligence RTCA system (Roche). pLenti-LacZ, pLenti-KMT9α, pLenti-KMT9α(N122A), pLenti-KMT9α(Y125A) pLenti-ETF1, pLenti-shLaZ, and pLenti-shKMT9α constructs were used to produce recombinant lentiviruses to infect LNCaP and PC-3M cells as described in Metzger et al., 2005. For real-time recording of LNCaP, LNCaP-abl, LNCaP-abl EnzaR, and C4-2B cell proliferation, 20000 cells/well were seeded in 16 well E-plates (Roche). For PC-3M, 2500 cells/well were used. For DuCaP EnzaR, LAPC4 and LAPC4 EnzaR, 40000 cells/well were used. Cells were transfected with the indicated siRNAs in presence of Dharmafect 1 (LNCaP-abl, LAPC4, LAPC4 EnzaR; Dharmacon), Dharmafect 2 (LNCaP, PC-3M), or RNAiMAx (C4-2B, LNCaP-abl EnzaR, DuCaP EnzaR; Caco-2, HT-29, SK-N-SH, SW620, SW480, HT-29, HT-115, HCT116 p53+/+ and HCT p53−/−; Life Technologies) 24 h before seeding in E-plates. Cell indices were automatically recorded every 15 minutes. Relative velocities represent the change of the cell index over time. The sequences of the siRNAs (Stealth RNAi™ siRNAs; Life Technologies) used in the experiments are as following: siCtrl: […]

[3] = tested on: SW-480 colorectal cancer cells; test: Cell proliferation, xCelligence RTCA; type: cell-based, human; conditions: final concentration of 30 μM, vs DMSO
Protocol: as §3, §4

[4] = tested on: MDA-MB-468 breast cancer cells; test: Cell proliferation, xCelligence RTCA; type: cell-based; conditions: final concentration of 30 μM, vs DMSO
Protocol: as §3, §4

A549 lung tumour cells = test: Cell proliferation, xCelligence RTCA; type: cell-based; conditions: final concentration of 30 μM, vs DMSO
Protocol: as §3, §4

HepG2 cells = test: Cell proliferation, xCelligence RTCA; type: cell-based; conditions: final concentration of 30 μM, vs DMSO; KMT9 non-responsive cells
Protocol: as §3, §4

SET8 = SET8 (Homo sapiens (Human), UniProt Q9NQR1); test: Methyltransferase panel, 10-dose IC50 mode; type: biochemical; conditions: Substrate: Nucleosomes; 1 μM SAM; read-out: Control IC50*
Sequence of SET8 (Q9NQR1 whole entry): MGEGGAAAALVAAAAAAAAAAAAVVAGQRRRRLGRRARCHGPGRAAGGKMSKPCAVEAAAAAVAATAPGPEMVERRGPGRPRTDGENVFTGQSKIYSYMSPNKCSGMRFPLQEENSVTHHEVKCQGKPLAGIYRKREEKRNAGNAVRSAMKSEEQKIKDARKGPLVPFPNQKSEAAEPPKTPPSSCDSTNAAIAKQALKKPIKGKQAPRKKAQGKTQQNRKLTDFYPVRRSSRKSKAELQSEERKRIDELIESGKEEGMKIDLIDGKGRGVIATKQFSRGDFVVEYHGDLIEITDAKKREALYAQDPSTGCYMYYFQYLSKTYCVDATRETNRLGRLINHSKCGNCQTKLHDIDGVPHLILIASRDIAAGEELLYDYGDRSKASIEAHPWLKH
Protocol: as §2

[5] = tested on: LAPC4 EnzaR xenograft tumours; test: Growth of xenograft tumours in NOD/SCID mice; type: in vivo; conditions: castrated mice, subcutaneous, vs miCtrl
From the text: (§5) It was investigated whether KMT9α loss might affect tumour growth in mice. Therefore, PC-3M and LNCaP cells were infected with lentivirus driving expression of either miRNA control (miRNA Ctrl) or miRNA against KMT9α (miRNA KMT9α) and implanted subcutaneously in the flank of immunocompromised mice. […] To investigate whether knockdown of KMT9α also blocks growth of enzalutamide-resistant tumours, LAPC4 EnzaR miCtrl and miKMT9α cells were implanted subcutaneously in the flank of immunocompromised, castrated mice.
(§6) pLenti6-miRNA Control and pLenti6-miRNA KMT9α constructs were used to produce recombinant lentiviruses to infect LNCaP, PC-3M and LAPC4 EnzaR cells as described^26. Five-week-old male severe combined immunodeficient mice were purchased from Charles River Laboratories. For tumour inoculation 5×10^6 LNCaP, 2×10^6 PC-3M, and 5×10^6 LAPC4 EnzaR cells infected with pLenti6-miRNA Control or pLenti6-miRNA KMT9α constructs were injected in NOD/SCID mice, respectively. Mice were castrated one week before injection of LAPC4 EnzaR. Cells were resuspended in 100 μl RPMI1640 mixed with 100 μl Matrigel (BD Biosciences) on ice and administered subcutaneously in the flank of each animal. The tumour size was determined by calliper measurements two times a week^24. Tumour volumes were calculated using the formula 4/3×π×r3. All experiments were performed according to the German Animal Protection Law with permission from the responsible local authorities.

LNCaP xenograft tumours = test: Growth of xenograft tumours in NOD/SCID mice; type: in vivo; conditions: cells infected with lentivirus, subcutaneous, vs miRNA Ctrl
From the text: as §5, §6

PC-3M xenograft tumours = test: Growth of xenograft tumours in NOD/SCID mice; type: in vivo; conditions: cells infected with lentivirus, subcutaneous, vs miRNA Ctrl
From the text: as §5, §6

Sequence of C21orf127 (Q9Y5N5 whole entry): as the sequence (Q9Y5N5 whole entry) above

## C[S+](CC[C@H](N)C(=O)[O-])C[C@H]1O[C@@H](n2cnc3c(N)ncnc32)[C@H](O)[C@@H]1O (stereo partly drawn) [SAM, S-adenosyl-methionine]
C21orf127
  SAM binding: no SAM binding
C21orf127/TRMT112
  Kd: 2500 nM
TRMT112
  SAM binding: no SAM binding
C21orf127(D103)/TRMT112
  SAM binding: no SAM binding

## Nc1ncnc2c1ncn2[C@@H]1O[C@H](C[C@@H](N)CC[C@H](N)C(=O)O)[C@@H](O)[C@H]1O [sinefungin]
[1]
  HMT activity of KMT9 (histone H4 methylation): blocked

## CN1C(=O)[C@@]23C[C@]4([C@]56C[C@@]78SS[C@@](CO)(C(=O)N7[C@H]5Nc5ccccc56)N(C)C8=O)c5ccccc5N[C@@H]4N2C(=O)[C@]1(CO)SS3 [Chaetocin]
PRDM9
  IC50: 354 nM
ASH1L
  IC50: 27.4 nM
NSD3
  IC50: 58.8 nM

## CC(C)N(CCCNC(=O)Nc1ccc(C(C)(C)C)cc1)C[C@H]1O[C@@H](n2cc(Br)c3c(N)ncnc32)[C@H](O)[C@@H]1O [SGC0946]
[1]
  HMT activity of KMT9 (histone H4 methylation): do not inhibit

## CC(C)N(CCCNC(=O)Nc1ccc(C(C)(C)C)cc1)C[C@H]1O[C@@H](n2ccc3c(N)ncnc32)[C@H](O)[C@@H]1O [EPZ004777]
[1]
  HMT activity of KMT9 (histone H4 methylation): do not inhibit

## siKMT9α-3′UTR: siRNA that targets the three-prime untranslated region of the endogenously transcribed KMT9α mRNA (SEQ ID NO: 4) (GGAACUACAUUAGACUUAGUGGAAA; listed as RNA, chemistry not given here)
[2]; LNCaP-LacZ control cells, vs siCtrl
  proliferation: strongly impaired

## CNc1ncnc2c1ccn2[C@@H]1C[C@H](CN(CCCNCCc2cccc(Oc3ccccc3)c2)CC[C@H](N)C(=O)OC)[C@@H](O)[C@H]1O [Compound 75b, methyl (S)-2-amino-4-((((1R,2R,3S,4R)-2,3-dihydroxy-4-(4-(methylamino)-7H-pyrrolo[2,3-d]pyrimidin-7-yl)cyclopentyl)methyl)(3-((3-phenoxyphenethyl)amino)propyl)amino)butanoate]
[3]
  proliferation: blocks proliferation
[2]; final concentration of 30 μM, vs DMSO
  proliferation: blocks proliferation
[4]
  proliferation: blocks proliferation
A549 lung tumour cells
  proliferation: blocks proliferation
HepG2 cells
  proliferation: does not affect proliferation

## CC(C)N(C[C@H]1O[C@@H](n2cnc3c(N)ncnc32)[C@H](O)[C@@H]1O)[C@H]1C[C@@H](CCc2nc3cc(C(C)(C)C)ccc3[nH]2)C1 [EPZ5676]
[1]
  HMT activity of KMT9 (histone H4 methylation): do not inhibit

## Cc1ccc(NC2=CC(=O)c3sc(C)nc3C2=O)cc1 [Ryuvidine]
SET8
  IC50: 775 nM

B1: miRNA KMT9α: miRNA against KMT9α expressed from lentivirus pLenti6-miRNA KMT9α (SEQ ID NO: 1, 2) (nucleic acid)
chain 1: TGCTGATGTGAACTTTGTTACAGCGTGTTTTGGCCACTGACTGACACGCTGTAAAAGTTCACAT
chain 2: CCTGATGTGAACTTTTACAGCGTGTCAGTCAGTGGCCAAAACACGCTGTAACAAAGTTCACATC
[5]
  growth and final weight of xenografts: strongly reduced
LNCaP xenograft tumours
  growth and final weight of xenografts: strongly reduced
PC-3M xenograft tumours
  growth and final weight of xenografts: strongly reduced
